From patent US9365604B2, “Oligomer-nucleoside phosphate conjugates” (NEKTAR THERAPEUTICS, priority 2007, dated 2016)
Like-named read-outs stand apart in the source and are kept apart here.

Tests used:
Caco-2 cells [1] = assay: Bi-directional permeability in Caco-2 cells
Excerpt: (§5) Bi-Directional Permeability of PEG-Floxuridine Conjugates in Caco-2 and MDCK Cells

[2] = Bi-directional permeability in Caco-2 cells; settings: human
Excerpt: as §5

A2780 = assay: Sulforhodamine B (SRB) growth inhibition assay; type: cell-based, Human; settings: Homo sapiens, SRB assay
Procedure: (§1) In Vitro Screening of PEG-Gemcitabine Monophosphate in Selected Human Cancer Cell Lines
(§2) The aim was to determine the GI50 values for PEG-floxuridine conjugates against a panel of cell lines, and based on previous data from Xenograft studies. […] The test articles were solubilized in dimethylsulfoxide and were tested at four different molar (M) concentrations; 10^−4, 10^−5, 10^−6, M. GI50 (the concentration needed to reduce the growth of treated cells to half that of untreated control cells) was calculated for each condition ([(Ti−Tz)/(C-Tz)]×100=50, where Ti, Tz, and C refer to absorbance values obtained from each tested concentration, time zero, and control treatment, respectively).
as §2, with “The objective” for “The aim”, “the IC50” for “the GI50”, “for PEG-gemcitabine” for “for PEG-floxuridine”, “in dimethyl sulfoxide” for “in dimethylsulfoxide”, “10^−6, 10^−7” for “10^−6,”, “condition ([(Ti−Tz)/(C−Tz)]×100=50,” for “condition ([(Ti−Tz)/(C-Tz)]×100=50,”

COLO205 = assay: Sulforhodamine B (SRB) growth inhibition assay; type: cell-based, Human; settings: Homo sapiens, COLO 205, COLO205, SRB assay
Procedure: as §1, §2
as §2, with “The objective” for “The aim”, “the IC50” for “the GI50”, “for PEG-gemcitabine” for “for PEG-floxuridine”, “in dimethyl sulfoxide” for “in dimethylsulfoxide”, “10^−6, 10^−7” for “10^−6,”, “condition ([(Ti−Tz)/(C−Tz)]×100=50,” for “condition ([(Ti−Tz)/(C-Tz)]×100=50,”

HT29 = assay: Sulforhodamine B (SRB) growth inhibition assay; type: cell-based, Human; settings: Homo sapiens, HT-29, SRB assay
Procedure: as §1, §2
as §2, with “The objective” for “The aim”, “the IC50” for “the GI50”, “for PEG-gemcitabine” for “for PEG-floxuridine”, “in dimethyl sulfoxide” for “in dimethylsulfoxide”, “10^−6, 10^−7” for “10^−6,”, “condition ([(Ti−Tz)/(C−Tz)]×100=50,” for “condition ([(Ti−Tz)/(C-Tz)]×100=50,”

HCT15 = assay: Sulforhodamine B (SRB) growth inhibition assay; type: cell-based, Human; settings: Homo sapiens, HCT-15, SRB assay
Procedure: as §1, §2
as §2, with “The objective” for “The aim”, “the IC50” for “the GI50”, “for PEG-gemcitabine” for “for PEG-floxuridine”, “in dimethyl sulfoxide” for “in dimethylsulfoxide”, “10^−6, 10^−7” for “10^−6,”, “condition ([(Ti−Tz)/(C−Tz)]×100=50,” for “condition ([(Ti−Tz)/(C-Tz)]×100=50,”

Hop62 = assay: Sulforhodamine B (SRB) growth inhibition assay; type: cell-based, Human; settings: Homo sapiens, HOP-62, SRB assay
Procedure: as §1, §2
as §2, with “The objective” for “The aim”, “the IC50” for “the GI50”, “for PEG-gemcitabine” for “for PEG-floxuridine”, “in dimethyl sulfoxide” for “in dimethylsulfoxide”, “10^−6, 10^−7” for “10^−6,”, “condition ([(Ti−Tz)/(C−Tz)]×100=50,” for “condition ([(Ti−Tz)/(C-Tz)]×100=50,”

MCF7 = assay: Sulforhodamine B (SRB) growth inhibition assay; type: cell-based, Human; settings: Homo sapiens
Procedure: as §1, §2
as §2, with “The objective” for “The aim”, “the IC50” for “the GI50”, “for PEG-gemcitabine” for “for PEG-floxuridine”, “in dimethyl sulfoxide” for “in dimethylsulfoxide”, “10^−6, 10^−7” for “10^−6,”, “condition ([(Ti−Tz)/(C−Tz)]×100=50,” for “condition ([(Ti−Tz)/(C-Tz)]×100=50,”

PANC-1 [3] = assay: In vitro cytotoxicity assay (CellTiter-Glo); type: cell-based; settings: Homo sapiens, 72 h exposure
Procedure: (§3) The objective of these studies was to determine the IC50 values for PEG-gemcitabine conjugates against gemcitabine-resistant cell lines based on data from previous Xenograft studies. The cells were exposed for 72 h, and cell viability assessed by using the CellTiter-Glo assay.
The PEG-gemcitabine derivatives and gemcitabine inhibited the growth of most of the cell lines with IC50 values from the nM to low μM range, except for PANC-1 cells. Like the previous study, some of the IC50 values should be interpreted carefully because the concentration range tested was not centered around the IC50. […] The PANC-1 pancreatic cell line, in contrast to BxPC-3, Capan-1, or MIA-PaCa-2, has been shown previously to be resistant in vitro to gemcitabine, and 4′-thio-FAC, a deoxycytidine sulfur- and fluoro-substituted analog (Zajchowski et al., (2005). Int J Cancer. 114(6), 1002-9).

PANC-1 [4] = settings: Zajchowski et al. 2005; cited from earlier work
in vitro = settings: human
Procedure: Cells were inoculated into 24-well microtiter plates in 100 μL at 5×10^3 cells/well, in duplicate. After 24 h, test articles were added to the cells for 24 or 48 h, after which time the supernatant from each of the wells was collected and stored below −15° C. until LC/MS analysis.

MDCK cells [5] = assay: Bi-directional permeability in MDCK cells
Excerpt: as §5

[6] = Bi-directional permeability in MDCK cells; settings: dog
Excerpt: as §5

MDCK cells [7] = system: MDCK cells
Excerpt: as §5

CAKI-1 = assay: In vitro cytotoxicity assay (CellTiter-Glo); type: cell-based; settings: Homo sapiens, 72 h exposure, CellTiter-Glo
MIA PaCa-2 = assay: In vitro cytotoxicity assay (CellTiter-Glo); type: cell-based; settings: Homo sapiens, 72 h exposure, CellTiter-Glo
Procedure: (§4) The objective of these studies were to determine the IC50 values for PEG-floxuridine conjugates against floxuridine-resistant cell lines based on data from previous Xenograft studies. The cells were exposed for 72 h, and cell viability assessed by using the CellTiter-Glo assay.
as §3

HT-29 = assay: In vitro cytotoxicity assay (CellTiter-Glo); type: cell-based; settings: Homo sapiens, 72 h exposure, CellTiter-Glo
Procedure: as §4, §3

HCT-116 = assay: In vitro cytotoxicity assay (CellTiter-Glo); type: cell-based; settings: Homo sapiens, 72 h exposure, CellTiter-Glo
Procedure: as §4, §3

DLD-1 = assay: In vitro cytotoxicity assay (CellTiter-Glo); type: cell-based; settings: Homo sapiens, 72 h exposure, CellTiter-Glo
Procedure: as §3

SW-620 = assay: In vitro cytotoxicity assay (CellTiter-Glo); type: cell-based; settings: Homo sapiens, 72 h exposure, CellTiter-Glo
Procedure: as §3

NCI-H23 = assay: In vitro cytotoxicity assay (CellTiter-Glo); type: cell-based; settings: Homo sapiens, 72 h exposure, CellTiter-Glo
Procedure: as §3

CCRF-CEM = assay: In vitro cytotoxicity assay (CellTiter-Glo); type: cell-based; settings: Homo sapiens, 72 h exposure, CellTiter-Glo
Procedure: as §3

K-562 = assay: In vitro cytotoxicity assay (CellTiter-Glo); type: cell-based; settings: Homo sapiens, K562, 72 h exposure, CellTiter-Glo
Procedure: as §3

AS283 = assay: In vitro cytotoxicity assay (CellTiter-Glo); type: cell-based; settings: 72 h exposure, CellTiter-Glo
Procedure: as §3

NCI-H522 = assay: In vitro cytotoxicity assay (CellTiter-Glo); type: cell-based; settings: Homo sapiens, 72 h exposure, CellTiter-Glo
Procedure: as §3

NCI-H460 = assay: In vitro cytotoxicity assay (CellTiter-Glo); type: cell-based; settings: Homo sapiens, 72 h exposure, CellTiter-Glo
Procedure: as §3

HL-60 = assay: In vitro cytotoxicity assay (CellTiter-Glo); type: cell-based; settings: Homo sapiens, 72 h exposure, CellTiter-Glo
Procedure: as §3

RL = assay: In vitro cytotoxicity assay (CellTiter-Glo); type: cell-based; settings: Homo sapiens, 72 h exposure, CellTiter-Glo
Procedure: as §3

DU145 = assay: Sulforhodamine B (SRB) growth inhibition assay; type: cell-based, Human; settings: Homo sapiens, DU-145, SRB assay, cells exposed for 24 h, read-out: GI50 values (μM) DU145
Procedure: as §2
as §2, with “The objective” for “The aim”, “the IC50” for “the GI50”, “for PEG-gemcitabine” for “for PEG-floxuridine”, “in dimethyl sulfoxide” for “in dimethylsulfoxide”, “10^−6, 10^−7” for “10^−6,”, “condition ([(Ti−Tz)/(C−Tz)]×100=50,” for “condition ([(Ti−Tz)/(C-Tz)]×100=50,”

Caco-2 cells [8] = system: Caco-2 cells
Excerpt: as §5

permeability across Caco-2 monolayers (in words) (Caco-2 cells [1]): poor permeability
Papp A→B [2]: 0.3 ×10⁻⁶ cm/s
Papp B→A [2]: 0.42 ×10⁻⁶ cm/s
efflux ratio [2]: 1.4
recovery ([2]; Caco-2, percent recovery A -> B): 90%
recovery ([2]; Caco-2, percent recovery B -> A): 89%
GI50 (A2780; 48 h drug exposure, read-out: GI50 (molar concentration) in Cell Line A2780): < 0.1 µM
GI50 (A2780; cells exposed for 24 h, read-out: GI50 values (μM) A2780): < 0.1 µM
GI50 (COLO205; 48 h drug exposure, read-out: GI50 (molar concentration) in Cell Line COLO205): 0.14 µM
GI50 (COLO205; cells exposed for 24 h, read-out: GI50 values (μM) COLO205): 0.14 µM
GI50 (HT29; 48 h drug exposure, read-out: GI50 (molar concentration) in Cell Line HT29): 2.1 µM
GI50 (HT29; cells exposed for 24 h, read-out: GI50 values (μM) HT29): 2.1 µM
GI50 (HCT15; 48 h drug exposure, read-out: GI50 (molar concentration) in Cell Line HCT15): 0.16 µM
GI50 (HCT15; cells exposed for 24 h, read-out: GI50 values (μM) HCT15): 0.16 µM
GI50 (MCF7; MCF-7 cell line, read-out: GI50 (MCF-7 moderately sensitive)): ~0.1 µM
GI50 (MCF7; SRB assay, 48 h drug exposure, read-out: GI50 (molar concentration) in Cell Line MCF7): < 0.1 µM
GI50 (MCF7; SRB assay, cells exposed for 24 h, read-out: GI50 values (μM) MCF7): < 0.1 µM
recovery (in vitro): 100 to 110%
permeability through MDCK monolayers (in words) (MDCK cells [5]): poor permeability
Papp A→B [6]: 0.17 ×10⁻⁶ cm/s
Papp B→A [6]: 0.12 ×10⁻⁶ cm/s
efflux ratio [6]: 0.7
recovery ([6]; percent recovery A -> B): 96%
recovery ([6]; percent recovery B -> A): 95%
Significant efflux (MDCK cells [7]): No
GI50 (DU145): < 0.1 µM
Significant efflux (Caco-2 cells [8]): No
SMILES: Nc1ccn([C@@H]2O[C@H](CO)[C@@H](O)C2(F)F)c(=O)n1 [Gemcitabine, reference compound]
GI50 (Hop62; 48 h drug exposure, read-out: GI50 (molar concentration) in Cell Line Hop62): 1.8 µM
GI50 (Hop62; cells exposed for 24 h, read-out: GI50 values (μM) Hop62): 1.8 µM
IC50 (PANC-1 [3]): > 1e+06 nM
resistance of PANC-1 in vitro (shown previously) (PANC-1 [4]): resistant
IC50 (CAKI-1): 8.3 nM
IC50 (MIA PaCa-2): 26 nM
IC50 (HT-29): 111 nM
IC50 (HCT-116): 1.9 nM
IC50 (DLD-1): 22 nM
IC50 (SW-620): 49 nM
IC50 (NCI-H23): 6.9 nM
IC50 (CCRF-CEM): 7 nM
IC50 (K-562): 697 nM
IC50 (AS283): 124 nM
IC50 (NCI-H522): 4.4 nM
IC50 (NCI-H460): 14 nM
IC50 (HL-60): 1.7 nM
IC50 (RL): 281 nM
